We go through six substances from patent US9833497B2, “Human originated EGF domain proteins and use of the same” (CHENGDU SOURCEBIO LIMITED-LIABILITY COMPANY, priority 2013, dated 2017).

Common to all, as to type: cell-based
One experiment has as its system Serratia marcescens. Nature of the experiment: MIC against Gram-negative bacteria: Serratia marcescens. Summed up: (§1)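 Two-fold serial dilutions of each purified human EGF domain protein, three replicate wells per level, were combined with bacteria at a final 5×10^5 CFU/mL in LB. Cultures were shaken at 175 rpm, 37° C. The MIC was taken as the minimum concentration preventing growth.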

A further experiment has as its system E. coli BL21. Put plainly: MIC against Gram-negative bacteria: E. coli BL21. A digest of the protocol:
as §1

In the next experiment the test system is Proteus mirabilis. Put plainly: MIC against Gram-negative bacteria: Proteus mirabilis. A digest of the protocol: as §1
A further experiment relates to Proteus vulgaris. Put plainly: MIC against Gram-negative bacteria: Proteus vulgaris. Summed up: as §1
The test system of the next experiment is Citrobacter diversus. Nature of the experiment: MIC against Gram-negative bacteria: Citrobacter diversus. A digest of the protocol: as §1
The next experiment relates to Klebsiella pneumonia. Put plainly: MIC against Gram-negative bacteria: Klebsiella pneumonia. Summed up:
as §1

The test system of the next experiment is E. coli DH5α. Put plainly: Antibacterial activity: MIC and growth curve against E. coli DH5α in 96-well plate. The note with it: minimal inhibitory concentration against E. coli DH5α; 96-well plate, 5×10^5 CFU/mL, 37° C., judged after 8 h. Summed up:
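Log-phase bacteria (OD600 ~0.5) resuspended in LB at 5×10^5 CFU/mL, exposed to recombinant protein at 50, 25, 12.5 μg/mL final in triplicate, 37 °C shaking at 175 rpm. OD600 read every 30 min; MIC is lowest concentration showing no growth.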

Another experiment has as its system Aeromonas hydrophila. Nature of the experiment: MIC against Gram-negative bacteria: Aeromonas hydrophila. Summed up: as §1
The next experiment relates to Moraxella catarrhalis. Nature of the experiment: MIC against Gram-negative bacteria: Moraxella catarrhalis. A digest of the protocol: as §1
Another experiment has as its system Enterobacter cloacae. Put plainly: MIC against Gram-negative bacteria: Enterobacter cloacae. Summed up:
as §1

In another experiment the test system is Pseudomonas aeruginosa. Nature of the experiment: MIC against Gram-negative bacteria: Pseudomonas aeruginosa. Summed up: as §1
Where [1] appears, read: 96-well plate, 5×10^5 CFU/mL, 37° C., 10 h.
Where [2] appears, read: 10 h cultivation at 37° C., 5×10^5 CFU/mL, two-fold serial dilution.

One may read the MIC as the lowest concentration that inhibits growth of the organism. High values mean a less susceptible organism, low ones a more susceptible organism. For “PRT1042 (SGFFCPSTHSCQNGGVFQTPQGSCSCPPGWMGTICS; listed as Homo sapiens)”, the MIC against Serratia marcescens (S. marcescens, 10 h cultivation at 37° C.) turned out to be 50 µg/mL; in the experiment with E. coli BL21 (E. coli BL21, 10 h cultivation at 37° C.) it was 50 µg/mL; in the experiment with Proteus mirabilis (P. mirabilis, 10 h cultivation at 37° C.), 50 µg/mL; with Proteus vulgaris (P. vulgaris, 10 h cultivation at 37° C.), 25 µg/mL; in the experiment on Citrobacter diversus (C. diversus, 10 h cultivation at 37° C.), 50 µg/mL; with Klebsiella pneumonia (K. pneumonia, 10 h cultivation at 37° C.) it was 25 µg/mL. Further, the MIC amounted to 25 µg/mL with E. coli DH5α; 50 µg/mL in the experiment with Aeromonas hydrophila (A. hydrophila, 10 h cultivation at 37° C.); 12.5 µg/mL with Moraxella catarrhalis (M. catarrhalis, 10 h cultivation at 37° C.); 50 µg/mL with Enterobacter cloacae (E. cloacae, 10 h cultivation at 37° C.); 12.5 µg/mL in the experiment on Pseudomonas aeruginosa (P. aeruginosa, 10 h cultivation at 37° C.).
In the case of “PRT546 (CDCHEAGTAPGVCDPLTGQCYCKENVQGPKCDQCSLGTFSLDAANPKGCTR; listed as Homo sapiens)”, the “MIC against S. marcescens” value with Serratia marcescens (setting [1]) was 50 µg/mL. In addition, the “MIC against E. coli BL21” value in the experiment with E. coli BL21 (setting [1]) came to 50 µg/mL. For the same substance, the “MIC against P. mirabilis” value against Proteus mirabilis (setting [1]) came to 12.5 µg/mL. Also, the “MIC against P. vulgaris” value with Proteus vulgaris (setting [1]) worked out at 25 µg/mL. Further, the “MIC against C. diversus” value in the experiment on Citrobacter diversus (setting [1]) stood at 12.5 µg/mL. In addition, in the experiment on Klebsiella pneumonia (setting [1]), the “MIC against K. pneumonia” value was found to be 50 µg/mL. In the experiment with E. coli DH5α, this substance yielded an MIC of 12.5 µg/mL. In addition, in the experiment on Aeromonas hydrophila (setting [1]), the “MIC against A. hydrophila” value was 50 µg/mL. Also, the “MIC against M. catarrhalis” value in the experiment on Moraxella catarrhalis (setting [1]) was found to be 50 µg/mL. Further, the “MIC against E. cloacae” value with Enterobacter cloacae (setting [1]) came out at 12.5 µg/mL. Besides, the “MIC against P. aeruginosa” value in the experiment with Pseudomonas aeruginosa (setting [1]) was 12.5 µg/mL.
For “PRT763 (ALDRCALNTHGCEHICVNDRSGSYHCECYEGYTLNEDRKTCS; listed as Homo sapiens)”, the “MIC (μg/mL) S. marcescens” value against Serratia marcescens (S. marcescens, 10 h cultivation at 37° C., 5×10^5 CFU/mL) was found to be 25 µg/mL. Further, in the experiment on E. coli BL21 (E. coli BL21, 10 h cultivation at 37° C., 5×10^5 CFU/mL), the “MIC (μg/mL) E. coli BL21” value is 50 µg/mL. Moreover, the “MIC (μg/mL) P. mirabilis” value against Proteus mirabilis (P. mirabilis, 10 h cultivation at 37° C., 5×10^5 CFU/mL) was 12.5 µg/mL. In addition, the “MIC (μg/mL) P. vulgaris” value with Proteus vulgaris (P. vulgaris, 10 h cultivation at 37° C., 5×10^5 CFU/mL) was found to be 50 µg/mL. Besides, in the experiment on Citrobacter diversus (C. diversus, 10 h cultivation at 37° C., 5×10^5 CFU/mL), the “MIC (μg/mL) C. diversus” value was 12.5 µg/mL. Moreover, the “MIC (μg/mL) K. pneumonia” value in the experiment on Klebsiella pneumonia (K. pneumonia, 10 h cultivation at 37° C., 5×10^5 CFU/mL) came to 25 µg/mL. Besides, the MIC against E. coli DH5α is 25 µg/mL. Besides, in the experiment on Aeromonas hydrophila (A. hydrophila, 10 h cultivation at 37° C., 5×10^5 CFU/mL), the “MIC (μg/mL) A. hydrophila” value turned out to be 25 µg/mL. For the same substance, the “MIC (μg/mL) M. catarrhalis” value against Moraxella catarrhalis (M. catarrhalis, 10 h cultivation at 37° C., 5×10^5 CFU/mL) amounted to 12.5 µg/mL. Moreover, in the experiment on Enterobacter cloacae (E. cloacae, 10 h cultivation at 37° C., 5×10^5 CFU/mL), the “MIC (μg/mL) E. cloacae” value came out at 12.5 µg/mL. In addition, the “MIC (μg/mL) P. aeruginosa” value against Pseudomonas aeruginosa (P. aeruginosa, 10 h cultivation at 37° C., 5×10^5 CFU/mL) came out at 12.5 µg/mL.
With “PRT1322 (PIDPCRAGNGGCHGLATCRAVGGGQRVCTCPPGFGGDGFS; listed as Homo sapiens)”, the “MIC against S. marcescens” value against Serratia marcescens (Serratia marcescens, 96-well plate, 5×10^5 CFU/mL, 37° C., 10 h) was determined as 12.5 µg/mL. Further, the “MIC against E. coli BL21” value in the experiment on E. coli BL21 (E. coli BL21, 96-well plate, 5×10^5 CFU/mL, 37° C., 10 h) turned out to be 25 µg/mL. Further, the “MIC against P. mirabilis” value in the experiment with Proteus mirabilis (Proteus mirabilis, 96-well plate, 5×10^5 CFU/mL, 37° C., 10 h) was determined as 12.5 µg/mL. Besides, the “MIC against P. vulgaris” value in the experiment with Proteus vulgaris (Proteus vulgaris, 96-well plate, 5×10^5 CFU/mL, 37° C., 10 h) came to 25 µg/mL. The “MIC against C. diversus” value against Citrobacter diversus (Citrobacter diversus, 96-well plate, 5×10^5 CFU/mL, 37° C., 10 h) was 50 µg/mL. The “MIC against K. pneumonia” value with Klebsiella pneumonia (Klebsiella pneumonia, 96-well plate, 5×10^5 CFU/mL, 37° C., 10 h) was determined as 25 µg/mL. In the experiment on E. coli DH5α, this substance yielded an MIC of 12.5 µg/mL. Besides, the “MIC against A. hydrophila” value with Aeromonas hydrophila (Aeromonas hydrophila, 96-well plate, 5×10^5 CFU/mL, 37° C., 10 h) was 12.5 µg/mL. In the experiment on Moraxella catarrhalis (Moraxella catarrhalis, 96-well plate, 5×10^5 CFU/mL, 37° C., 10 h), the “MIC against M. catarrhalis” value was 12.5 µg/mL. Further, the “MIC against E. cloacae” value in the experiment on Enterobacter cloacae (Enterobacter cloacae, 96-well plate, 5×10^5 CFU/mL, 37° C., 10 h) worked out at 50 µg/mL. In the experiment on Pseudomonas aeruginosa (Pseudomonas aeruginosa, 96-well plate, 5×10^5 CFU/mL, 37° C., 10 h), the “MIC against P. aeruginosa” value is 12.5 µg/mL.
Regarding “PRT1091 (DVNECSSNPCQNGGTCENLPGNYTCHCPFDNLSRTFYGGRDCS; listed as Homo sapiens)”, the “MIC S. marcescens” value in the experiment on Serratia marcescens (setting [2]) came to 12.5 µg/mL. Besides, in the experiment with E. coli BL21 (setting [2]), the “MIC E. coli BL21” value was 50 µg/mL. In addition, the “MIC P. mirabilis” value with Proteus mirabilis (setting [2]) was determined as 50 µg/mL. Also, in the experiment on Proteus vulgaris (setting [2]), the “MIC P. vulgaris” value turned out to be 25 µg/mL. In the experiment with Citrobacter diversus (setting [2]), the “MIC C. diversus” value was determined as 12.5 µg/mL. The “MIC K. pneumonia” value against Klebsiella pneumonia (setting [2]) was 25 µg/mL. Moreover, in the experiment with E. coli DH5α, the MIC was 12.5 µg/mL. For the same substance, the “MIC A. hydrophila” value in the experiment with Aeromonas hydrophila (setting [2]) came out at 25 µg/mL. Moreover, the “MIC M. catarrhalis” value against Moraxella catarrhalis (setting [2]) worked out at 25 µg/mL. Further, the “MIC E. cloacae” value in the experiment on Enterobacter cloacae (setting [2]) stood at 50 µg/mL. Moreover, the “MIC P. aeruginosa” value in the experiment on Pseudomonas aeruginosa (setting [2]) was 12.5 µg/mL.
In the case of “PRT613 (CQCSDNIDPNAVGNCNRLTGECLKCIYNTAGFYCDRCKDGFFGNPLAPNPADKCKA; listed as Homo sapiens)”, in the experiment with Serratia marcescens (setting [1]), the “MIC S. marcescens” value came to 50 µg/mL. The “MIC E. coli BL21” value in the experiment with E. coli BL21 (setting [1]) turned out to be 12.5 µg/mL. The “MIC P. mirabilis” value against Proteus mirabilis (setting [1]) worked out at 25 µg/mL. For the same substance, the “MIC P. vulgaris” value against Proteus vulgaris (setting [1]) was 12.5 µg/mL. The “MIC C. diversus” value in the experiment on Citrobacter diversus (setting [1]) stood at 25 µg/mL. Moreover, the “MIC K. pneumonia” value against Klebsiella pneumonia (setting [1]) amounted to 50 µg/mL. In addition, in the experiment with E. coli DH5α, the MIC was found to be 50 µg/mL. Also, in the experiment with Aeromonas hydrophila (setting [1]), the “MIC A. hydrophila” value turned out to be 12.5 µg/mL. In addition, the “MIC M. catarrhalis” value against Moraxella catarrhalis (setting [1]) turned out to be 50 µg/mL. Further, the “MIC E. cloacae” value against Enterobacter cloacae (setting [1]) was 25 µg/mL. Also, in the experiment with Pseudomonas aeruginosa (setting [1]), the “MIC P. aeruginosa” value was 25 µg/mL.
